Laboratory results as given in PubChem BioAssay AID194 (DTP/NCI, 2004).
Values joined by “and” are separate entries in the source; they are usually repeats but may differ in a detail not shown here. Identical values can stand only once. Results filed as inconclusive are left out. *1 amine or outer side, *2 acyl side, *3 side chain or, on linkers, in order; H or OH if unused. Where a SMILES comes first, the peptide text is derived from it. Bridges are numbered along the chain shown (N, C = ends). Roman numbers before positions name the chains, in order. [ ]: non-standard residue; d: D form. Actinocin(9to1) = Cc1c2oc3c(C)ccc(C(=O)[*:1])c3nc-2c(C(=O)[*:2])c(N)c1=O; aThr = C[C@H](O)[C@H](N)C(=O)O; NMeV = CN[C@H](C(=O)O)C(C)C; Sar = CNCC(=O)O

System: BDF1 mice, B16 melanoma s.c., survival/tumor T/C
Test: NCI In Vivo Anticancer Drug Screen. Data for tumor model B16 Melanoma (subcutaneous) in B6D2F1 (BDF1) mice
Method: The antitumor activity of compounds was measured in mice bearing transplantable tumors. Survival or tumor size were measured and the results are expressed as the measurement made in the treated group (T) divided by the measurement made in the vehicle treated control group (C). The tumor model used in this assay is B16 Melanoma (subcutaneous) in B6D2F1 (BDF1) mice

[1] = endpoint: median survival time, dose: 50.0 mg/kg/injection, schedule: Q01DX009 (ip), vehicle: Klucel (hydroxypropylcellulose) (HPC), higher = longer survival
[2] = endpoint: median survival time, dose: 100.0 mg/kg/injection, schedule: Q01DX009 (ip), vehicle: Klucel (hydroxypropylcellulose) (HPC), higher = longer survival

## O=NN(CCF)C(=O)NCCO
endpoint: median survival time, dose: 3.11 mg/kg/injection, schedule: Q01DX007 (ip), vehicle: water, higher = longer survival
  T/C: 98 % of control
endpoint: median survival time, dose: 5.18 mg/kg/injection, schedule: Q01DX007 (ip), vehicle: water, higher = longer survival
  T/C: 112 % of control
endpoint: median survival time, dose: 8.64 mg/kg/injection, schedule: Q01DX007 (ip), vehicle: water, higher = longer survival
  T/C: 123 % of control

## Nc1ccc(N=Nc2ccccc2)c(N)c1
[1]
  T/C: 91 % of control
[2]
  T/C: 106 % of control

## Cc1c2oc3c(C)ccc(C(=O)N[C@@H]4C(=O)N[C@H](C(C)C)C(=O)N5CCC[C@H]5C(=O)N(C)CC(=O)N(C)[C@@H](C(C)C)C(=O)O[C@H]4C)c3nc-2c(C(=O)N[C@@H]2C(=O)N[C@H](C(C)C)C(=O)N3CCC[C@H]3C(=O)N(C)CC(=O)N(C)[C@@H](C(C)C)C(=O)O[C@H]2C)c(N)c1=O (I: [aThr][dV]P[Sar][NMeV] / II: [aThr][dV]P[Sar][NMeV]; ester I:1-I:C, II:1-II:C; linker I:N-II:N via Actinocin(9to1))
endpoint: median tumor weight (est.), dose: 100.0 micrograms/kg/injection, schedule: Q01DX009 (ip), vehicle: saline, higher = larger tumour
  T/C: 38 % of control

## Cn1c(=O)[nH]c2nncnc2c1=O
endpoint: median survival time, dose: 0.2 mg/kg/injection, schedule: Q01DX009 (ip), vehicle: water, higher = longer survival
  T/C: 103 % of control
endpoint: median survival time, dose: 0.4 mg/kg/injection, schedule: Q01DX009 (ip), vehicle: water, higher = longer survival
  T/C: 119 % of control
endpoint: median survival time, dose: 0.8 mg/kg/injection, schedule: Q01DX009 (ip), vehicle: water, higher = longer survival
  T/C: 99 % of control
endpoint: median survival time, dose: 3.12 mg/kg/injection, schedule: Q01DX009 (ip), vehicle: water, higher = longer survival
  T/C: 98 % of control and 103 % of control
endpoint: median survival time, dose: 6.25 mg/kg/injection, schedule: Q01DX009 (ip), vehicle: water, higher = longer survival
  T/C: 117 % of control
endpoint: median survival time, dose: 12.5 mg/kg/injection, schedule: Q01DX009 (ip), vehicle: water, higher = longer survival
  T/C: 96 % of control and 99 % of control
endpoint: median survival time, dose: 25.0 mg/kg/injection, schedule: Q01DX009 (ip), vehicle: water, higher = longer survival
  T/C: 114 % of control

## CN(C)/N=N/c1nc[nH]c1C(N)=O
endpoint: median survival time, dose: 12.5 mg/kg/injection, schedule: Q01DX009 (ip), vehicle: Klucel (hydroxypropylcellulose) (HPC), higher = longer survival
  T/C: 101 % of control
endpoint: median survival time, dose: 25.0 mg/kg/injection, schedule: Q01DX009 (ip), vehicle: Klucel (hydroxypropylcellulose) (HPC), higher = longer survival
  T/C: 89 % of control
endpoint: median survival time, dose: 37.5 mg/kg/injection, schedule: Q01DX009 (ip), vehicle: saline with Tween-80, higher = longer survival
  T/C: 175 % of control
endpoint: median survival time, dose: 37.5 mg/kg/injection, schedule: Q01DX009 (ip), vehicle: saline, higher = longer survival
  T/C: 110 % of control
[1]
  T/C: 119 % of control
endpoint: median survival time, dose: 75.0 mg/kg/injection, schedule: Q01DX009 (ip), vehicle: Klucel (hydroxypropylcellulose) (HPC), higher = longer survival
  T/C: 160 % of control
endpoint: median survival time, dose: 75.0 mg/kg/injection, schedule: Q01DX009 (ip), vehicle: saline with Tween-80, higher = longer survival
  T/C: 156 % of control
endpoint: median survival time, dose: 75.0 mg/kg/injection, schedule: Q01DX009 (ip), vehicle: saline, higher = longer survival
  T/C: 113 % of control
[2]
  T/C: 109 % of control
endpoint: median survival time, dose: 150.0 mg/kg/injection, schedule: Q01DX009 (ip), vehicle: Klucel (hydroxypropylcellulose) (HPC), higher = longer survival
  T/C: 91 % of control
endpoint: median survival time, dose: 150.0 mg/kg/injection, schedule: Q01DX009 (ip), vehicle: saline with Tween-80, higher = longer survival
  T/C: 154 % of control
endpoint: median tumor weight (est.), dose: 37.0 mg/kg/injection, schedule: Q01DX009 (ip), vehicle: saline with Tween-80, higher = larger tumour
  T/C: 50 % of control
endpoint: median tumor weight (est.), dose: 75.0 mg/kg/injection, schedule: Q01DX009 (ip), vehicle: saline with Tween-80, higher = larger tumour
  T/C: 110 % of control
endpoint: median tumor weight (est.), dose: 150.0 mg/kg/injection, schedule: Q01DX009 (ip), vehicle: Klucel (hydroxypropylcellulose) (HPC), higher = larger tumour
  T/C: 59 % of control
endpoint: median tumor weight (est.), dose: 150.0 mg/kg/injection, schedule: Q01DX009 (ip), vehicle: saline with Tween-80, higher = larger tumour
  T/C: 42 % of control
endpoint: median tumor weight (est.), dose: 300.0 mg/kg/injection, schedule: Q01DX009 (ip), vehicle: saline with Tween-80, higher = larger tumour
  T/C: 43 % of control

## O=P(O)(NCCCl)NCCCl
endpoint: median survival time, dose: 50.0 mg/kg/injection, schedule: Q01DX001 (ip), vehicle: saline, higher = longer survival
  T/C: 98 % of control
endpoint: median survival time, dose: 150.0 mg/kg/injection, schedule: Q01DX001 (ip), vehicle: saline, higher = longer survival
  T/C: 162 % of control

## CN(C)c1ccc(C(=O)c2ccc(N(C)C)cc2)cc1
[2]
  T/C: 113 % of control
endpoint: median survival time, dose: 200.0 mg/kg/injection, schedule: Q01DX009 (ip), vehicle: Klucel (hydroxypropylcellulose) (HPC), higher = longer survival
  T/C: 98 % of control
endpoint: median survival time, dose: 400.0 mg/kg/injection, schedule: Q01DX009 (ip), vehicle: Klucel (hydroxypropylcellulose) (HPC), higher = longer survival
  T/C: 110 % of control
